According to ChEMBL document CHEMBL5143625, “Isolation, synthesis and bioactivity evaluation of isoquinoline alkaloids from Corydalis hendersonii Hemsl. against gastric cancer in vitro and in vivo” (Bioorg Med Chem, 2022):
Active and inactive are the calls of the source. No cut-off for these calls is given here.

Key:
MGC-803 [1] = assay: Induction of apoptosis in human MGC-803 cells assessed as decrease in cytochrome C expression at 1.25 to 10 uM by western blot analysis; assay type: functional, cell-based; settings: dose 1.25-10 µM, DDE = dose-dependent effect
HGC-27 [2] = assay: Inhibition of colony formation in human HGC-27 cells at 1 to 8 uM after 7 to 10 days by crystal violet staining based assay; assay type: functional, cell-based; settings: dose 1-8 µM, time 7-10 day, DDE = dose-dependent effect
HGC-27 [3] = assay: Inhibition of cell invasion in human HGC-27 cells assessed as reduction in invasion at 1 to 8 uM for 24 hrs by transwell invasion assay; assay type: functional, cell-based; settings: dose 1-8 µM, DDE = dose-dependent effect
MGC-803 [4] = assay: Inhibition of cell migration in human MGC-803 cells assessed as reduction in migration at 0.5 to 4 uM for 24 hrs by wound healing assay; assay type: functional, cell-based; settings: dose 0.5-4 µM, DDE = dose-dependent effect
HGC-27 [5] = assay: Induction of ROS generation in human HGC-27 cells at 2 to 16 uM by DCFH-DA staining based fluorescence microscopic analysis; assay type: functional, cell-based; settings: dose 2-16 µM, DDE = dose-dependent effect
MGC-803 [6] = assay: Inhibition of cell invasion in human MGC-803 cells assessed as reduction in invasion at 0.5 to 4 uM for 24 hrs by transwell invasion assay; assay type: functional, cell-based; settings: dose 0.5-4 µM, DDE = dose-dependent effect
MGC-803 [7] = assay: Induction of apoptosis in human MGC-803 cells assessed as increase in cleaved caspase-3 expression at 1.25 to 10 uM by western blot analysis; assay type: functional, cell-based; settings: dose 1.25-10 µM, DDE = dose-dependent effect
HGC-27 [8] = assay: Inhibition of PI3K/AKT/mTOR signalling pathway in human HGC-27 cells assessed as reduction in PI3K phosphorylation at 2 to 16 uM by western blot analysis; assay type: cell-based; settings: dose 2-16 µM, DDE = dose-dependent effect
HGC-27 [9] = assay: Induction of apoptosis in human HGC-27 cells assessed as increase in Bax expression at 2 to 16 uM by western blot analysis; assay type: functional, cell-based; settings: dose 2-16 µM, DDE = dose-dependent effect
[10] = Cmax in Sprague-Dawley rat at 50 mg/kg, ip measured upto 24 hrs by LC-MS analysis; assay type: ADME, organism-based; set-up: time < 24 hrs, dose 50 mg/kg, route ip; settings: in vivo
HGC-27 [11] = assay: Inhibition of PI3K/AKT/mTOR signalling pathway in human HGC-27 cells assessed as reduction in AKT phosphorylation at 2 to 16 uM by western blot analysis; assay type: cell-based; settings: dose 2-16 µM, DDE = dose-dependent effect
HGC-27 [12] = assay: Inhibition of DNA topoisomerase 1 in human HGC-27 cells assessed as relaxation of supercoiled plasmid pBR322 DNA at 15 to 30 uM incubated for 30 mins by agarose gel electrophoresis; assay type: cell-based; settings: dose 15-30 µM
HGC-27 [13] = assay: Induction of apoptosis in human HGC-27 cells assessed as increase in cleaved caspase-3 expression at 2 to 16 uM by western blot analysis; assay type: functional, cell-based; settings: dose 2-16 µM, DDE = dose-dependent effect
HGC-27 [14] = assay: Inhibition of cell migration in human HGC-27 cells assessed as reduction in migration at 1 to 8 uM for 24 hrs by transwell migration assay; assay type: functional, cell-based; settings: dose 1-8 µM, DDE = dose-dependent effect
MGC-803 [15] = assay: Antiproliferative activity against human MGC-803 cells assessed as EdU positive cells at 0.5 to 4 uM for 24 hrs by y EdU assay (reference value: 65.2%); assay type: functional; settings: dose 0.5-4 µM
HGC-27 [16] = assay: Antiproliferative activity against human HGC-27 cells assessed as EdU positive cells at 1 to 8 uM for 24 hrs by y EdU assay (reference value: 56.2%); assay type: functional; settings: dose 1-8 µM
MGC-803 [17] = assay: Inhibition of PI3K/AKT/mTOR signalling pathway in human MGC-803 cells assessed as reduction in PI3K phosphorylation at 1.25 to 10 uM by western blot analysis; assay type: cell-based; settings: dose 1.25-10 µM, DDE = dose-dependent effect
MGC-803 [18] = assay: Inhibition of PI3K/AKT/mTOR signalling pathway in human MGC-803 cells assessed as reduction in AKT phosphorylation at 1.25 to 10 uM by western blot analysis; assay type: cell-based; settings: dose 1.25-10 µM, DDE = dose-dependent effect
HGC-27 [19] = assay: Inhibition of PI3K/AKT/mTOR signalling pathway in human HGC-27 cells assessed as reduction in mTOR phosphorylation at 2 to 16 uM by western blot analysis; assay type: cell-based; settings: dose 2-16 µM, DDE = dose-dependent effect
MGC-803 [20] = assay: Induction of ROS generation in human MGC-803 cells at 1.25 to 10 uM by DCFH-DA staining based fluorescence microscopic analysis; assay type: functional, cell-based; settings: dose 1.25-10 µM, DDE = dose-dependent effect
MGC-803 [21] = assay: Induction of apoptosis in human MGC-803 cells assessed as increase in apoptotic cells at 1.25 to 10 uM after 48 hr by AnnexinV-FITC/PI staining based flow cytometric analysis (reference value: 2.71%); assay type: functional, cell-based; settings: dose 1.25-10 µM, DDE = dose-dependent effect
MGC-803 [22] = assay: Inhibition of cell migration in human MGC-803 cells assessed as reduction in migration at 0.5 to 4 uM for 24 hrs by transwell migration assay; assay type: functional, cell-based; settings: dose 0.5-4 µM, DDE = dose-dependent effect
MGC-803 [23] = assay: Inhibition of colony formation in human MGC-803 cells at 0.5 to 4 uM after 7 to 10 days by crystal violet staining based assay; assay type: functional, cell-based; settings: dose 0.5-4 µM, time 7-10 day, DDE = dose-dependent effect
HGC-27 [24] = assay: Antiproliferative activity against human HGC-27 cells assessed as reduction in cell viability after 24 hrs by MTT assay; assay type: functional, cell-based; settings: HGC-27, 24 h
HGC-27 [25] = assay: Induction of apoptosis in human HGC-27 cells assessed as increase in twin-kiling cell nuclei at 2 to 16 uM by Hoechst 33342 staining based fluorescent microscopic analysis; assay type: functional; settings: dose 2-16 µM
HGC-27 [26] = assay: Induction of cell cycle arrest in human HGC-27 cells assessed as cells accumulation at G2/M phase at 2 to 16 uM after 48 hrs by propidium iodide staining based flow cytometric analysis (reference value: 5.3%); assay type: functional; settings: dose 2-16 µM
MGC-803 [27] = assay: Antitumor activity against human MGC-803 cells xenografted in immunodeficient nude mouse assessed as tumor volume at 50 mg/kg, ip administered for 3 weeks (reference value: 1039.6 mm3); assay type: functional
MGC-803 [28] = assay: Inhibition of PI3K/AKT/mTOR signalling pathway in human MGC-803 cells assessed as reduction in mTOR phosphorylation at 1.25 to 10 uM by western blot analysis; assay type: cell-based; settings: dose 1.25-10 µM, DDE = dose-dependent effect
MGC-803 [29] = assay: Induction of apoptosis in human MGC-803 cells assessed as reduction in BCl2 expression at 1.25 to 10 uM by western blot analysis; assay type: functional, cell-based; settings: dose 1.25-10 µM, DDE = dose-dependent effect
MGC-803 [30] = assay: Induction of apoptosis in human MGC-803 cells assessed as increase in Bax expression at 1.25 to 10 uM by western blot analysis; assay type: functional, cell-based; settings: dose 1.25-10 µM, DDE = dose-dependent effect
[31] = Tmax in Sprague-Dawley rat at 50 mg/kg, ip measured upto hrs by LC-MS analysis; assay type: ADME, organism-based; settings: in vivo, time < 24 hrs
MGC-803 [32] = assay: Induction of apoptosis in human MGC-803 cells assessed as increase in twin-kiling cell nuclei at 1.25 to 10 uM by Hoechst 33342 staining based fluorescent microscopic analysis; assay type: functional; settings: dose 1.25-10 µM
MGC-803 [33] = assay: Induction of mitochondrial membrane potential loss in human MGC-803 cells assessed as TMRE positive cells at 1.25 to 10 uM by TRME staining based flow cytometric analysis (reference value: 6.8%); assay type: functional, cell-based; settings: dose 1.25-10 µM, DDE = dose-dependent effect
MGC-803 [34] = assay: Down regulation of MMP9 expression in human MGC-803 cells at 1.25 to 10 uM after 24 hrs by western blot analysis; assay type: functional, cell-based; settings: dose 1.25-10 µM, DDE = dose-dependent effect
MGC-803 [35] = assay: Induction of apoptosis in human MGC-803 cells assessed as increase in cleaved caspase-9 expression at 1.25 to 10 uM by western blot analysis; assay type: functional, cell-based; settings: dose 1.25-10 µM, DDE = dose-dependent effect

Compound: Oc1c(Cc2nccc3cc4c(cc23)OCO4)ccc2c1OCO2
- Activity (MGC-803 [1]): Dde
- inhibition (HGC-27 [2]): Dde
- inhibition (HGC-27 [3]): Dde
- inhibition (MGC-803 [4]): Dde
- Activity (HGC-27 [5]): Dde
- inhibition (MGC-803 [6]): Dde
- Activity (MGC-803 [7]): Dde
- inhibition (HGC-27 [8]): Dde
- Activity (HGC-27 [9]): Dde
- Cmax [10]: 8900 ng/mL
- inhibition (HGC-27 [11]): Dde
- inhibition (HGC-27 [12]): Active
- Activity (HGC-27 [13]): Dde
- inhibition (HGC-27 [14]): Dde
- Activity (MGC-803 [15]): 19.9%
- Activity (HGC-27 [16]): 20.8%
- inhibition (MGC-803 [17]): Dde
- inhibition (MGC-803 [18]): Dde
- inhibition (HGC-27 [19]): Dde
- Activity (MGC-803 [20]): Dde
- Activity (MGC-803 [21]): Dde
- inhibition (MGC-803 [22]): Dde
- inhibition (MGC-803 [23]): Dde
- IC50 (HGC-27 [24]): 7.6 µM
- Activity (HGC-27 [25]): 41.1%
- Activity (HGC-27 [25]; DDE = dose-dependent effect): Dde
- Activity (HGC-27 [26]): 51.2%
- Activity (MGC-803 [27]): 440.1 mm3
- inhibition (MGC-803 [28]): Dde
- Activity (MGC-803 [29]): Dde
- Activity (MGC-803 [30]): Dde
- Tmax [31]: 2 h
- Activity (MGC-803 [32]): 29.5%
- Activity (MGC-803 [32]; DDE = dose-dependent effect): Dde
- Activity (MGC-803 [33]): Dde
- Activity (MGC-803 [34]): Dde
- Activity (MGC-803 [35]): Dde
